From US5861424A, “Composition and method for treating cancer” (priority 1995, dated 1999)
Where two headings read alike, the source gives them in different places.

Columns and labels:
normal nude mice = assay: Toxicity to normal nude mice
[1] = system: normal monkey kidney epithelial cell line CV-1; assay: Colony formation assay, normal monkey kidney epithelial cells CV-1; conditions: Primates, Epithelial cell;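 also: colonies visualized by crystal violet staining, incubation at 37 °C, IC50 relative to untreated wells given culture medium alone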
Method: (§2) Human colon carcinoma cell line CX-1 or normal monkey kidney epithelial cell line CV-1 was chosen as representatives of cancer cells and normal cells, respectively. […] CX-1 cells (2,000 cells/well) and CV-1 cells (1,000 cells/well) were plated in 24-well plastic culture plates. […] The control received culture media only. Cells were treated with compounds of General Formulas (1) to (6) at 37° C. for 24 hours. After rinsing with fresh culture medium three times, the cells were further incubated at 37° C. for 7 to 10 days. Cell colonies were fixed and stained with 2% crystal violet in 70% ethanol for 10 minutes and rinsed in water. […] The selectivity is defined as the ratio of IC50 for CV-1 and IC50 for CX-1.

[2] = system: human colon carcinoma cell line CX-1; assay: Colony formation assay, human colon carcinoma CX-1; assay type: cell-based; conditions: for IC50: Homo sapiens, Colon carcinoma cell; for Selectivity (ratio of IC50 for CV-1 and IC50 for CX-1): CV-1/CX-1
Method: as §2

human melanoma LOX = assay: Survival of nude mice implanted with human melanoma LOX; assay type: in vivo, human melanoma in male athymic Swiss nu/nu mouse; conditions: Mus musculus, ip, 24 h, read-out: T/C (survival)
Method: LOX, a human melanoma cell line, grown subcutaneously in nude mice was excised, trypsinized to yield a single cell suspension using a metal grid with a […]. Red blood cells were lysed by incubation with 0.17 molar ammonium chloride at 4° C. for 20 minutes. Five million viable trypan blue negative cells made up in 0.1 ml of Dulbecco modified Eagles' medium (DME) were injected into the peritoneal cavity of a male athymic Swiss nu/nu mouse. The control group and each treatment group consisted of 5 to 10 mice. Treatment was commenced the following day by intraperitoneal injection.
Ten control mice received 0.25 ml of 2% dextrose on those days the treated groups were injected with the compounds of this invention. The compounds of the General Formulas. (1) to (6) used in this invention which were tested are listed in Table VIII below and the results obtained are shown in Table VIII and FIG. 1-6 of the accompanying drawings. T/C is the ratio, expressed as a percentage of the mean survival age of the treated group to the mean survival age of the untreated control group.

[3] = system: human pancreatic carcinoma CRL 1420 cell line; assay: Colony formation assay, human pancreatic carcinoma CRL 1420; assay type: cell-based; conditions: Table VII; for CRL-1420 (IC50) / IC50: 24 h treatment; for Selectivity (CV-1 IC50 / CRL-1420 IC50): CV-1/CRL-1420; for IC50: Homo sapiens, 24 h
From the text: (§1) The control received culture media only.
The Selectivity values, CRL 1420 values and CV-1 values for compounds of the General Formulas (1) to (6) used in the present invention are shown in Table VII below.

[4] = system: human colon carcinoma CX-1; assay: Anti-human colon carcinoma CX-1 activity in nude mice, tumor inhibition; assay type: in vivo, human colon carcinoma in Swiss nu/nu mice; conditions: Mus musculus, ip, 24 h
From the text: Human colon carcinoma cell line CX-1 has been chosen by the National Cancer Institute as a mode for cancer drug screening (NCI Protocol 3C2H2). It was established in culture from the surgical explant of the primary colon adenocarcinoma of a person with no previous chemotherapy. The cultured CX-1 cells, upon subcutaneous injection, can grow readily in nude mice as a moderately- to well-differentiated human colon carcinoma. CEA is expressed as expected for differentiated colon carcinoma cells. Abundant keratin, consistent with epithelial origin, is present. Increased uptake and prolonged retention of delocalized lipophilic cations are observed.
Swiss nu/nu mice obtained from Taconic Farm were housed in a pathogen-free environment. Tumors subcutaneously passaged in nude mice were excised under sterile conditions and converted to a single cell suspension using a metal grid with a 0.4 mm mesh. Red blood cells were lysed by incubation with 0.17M ammonium chloride at 4° C. for 20 minutes. Cells were scored for viability with trypan blue. Viable CX-1 cells (2.5 million) made up in 0.1 ml of cell culture medium were injected subcutaneously into each nude mouse. The mice were randomly allocated into a control group (five mice) and a treatment group (five mice per group). The drug treatment was commenced the next day. Doses and schedules were developed empirically and were based mainly on information on LD50 and LD10 obtained from preliminary toxicity studies. The control group received an equivalent volume of hydroxylpropyl-β-cyclodextrin-5% glucose solution.
The pharmaceutical compositions tested comprised solutions in 5% glucose subjected to sonication at concentrations of 1 mg/ml. Those compounds which were not completely dissolved by this procedure were dissolved in hydroxypropyl-β-cyclodextrin using the following method. Hydroxypropyl-β-cyclodextrin (45 g) was mixed with 100 ml of sterilized, double distilled water and stirred for four hours. Each of the compounds to be tested (20 mg) was mixed with 10 ml of hydroxypropyl-β-cyclodextrin solution and sonicated for 60 minutes in the dark. This solution was then diluted in 5% glucose to yield a final compound concentration of 0.5 mg/ml, and further sonicated for 60 minutes in the dark to assure that the compound was completely dissolved.
When the growth of tumors in the control group reached the exponential phase and the size of the tumor was palpable (usually 20 to 30 days after tumor implantation), the experiments were terminated. Tumors in each mouse were excised and weighed using an analytical balance. Total tumor weight in each group from five mice was calculated. Per cent tumor inhibition between the treated group and the control group was then calculated for each group.

[5] = system: human breast carcinoma MCF-7 cell line; assay: Colony formation assay, human breast carcinoma MCF-7; assay type: cell-based; conditions: Table VI; for IC50: Homo sapiens, MCF7, 24 h, 24 h treatment, read-out: MCF-7 (IC50); for Selectivity (CV-1 IC50 / MCF-7 IC50): CV-1/MCF-7
From the text: as §1
The Selectivity values, MCF-7 values and CV-1 values for compounds of the General Formulas (1) to (6) used in the present invention are shown in Table VI below.

[6] = system: human bladder carcinoma EJ cell line; assay: Colony formation assay, human bladder carcinoma EJ; assay type: cell-based; conditions: Table IV; for IC50: Homo sapiens, EJ, 24 h, read-out: EJ (IC50); for Selectivity (CV-1 IC50 / EJ IC50): CV-1/EJ
From the text: as §1

[7] = system: human melanoma LOX cell line; assay: Colony formation assay, human melanoma LOX; assay type: cell-based; conditions: Table V; for IC50: Homo sapiens, LOX, 24 h, read-out: LOX (IC50); for Selectivity (CV-1 IC50 / LOX IC50): CV-1/LOX
From the text: as §1

[8] = system: human ovarian carcinoma OVCAR-3; assay: Survival of nude mice implanted with human ovarian carcinoma OVCAR-3; assay type: in vivo, human ovarian carcinoma in athymic Swiss nu/nu mice
Method: A human ovarian carcinoma cell line, OVCAR-3, was used. Ten million cells of this cell line were injected IP into ten athymic Swiss nu/nu mice. Ten mice into which these cancer cells had been injected were selected as a control group and received in equal volume of 5% dextrose as that of the treated group. The compounds of the General Formulas (1) to (6) which were tested and the results obtained are shown in Table IX below and in FIG. 7-9 of the accompanying drawings.

[9] = read-out: CV-1 (IC50), Table III, 24 h treatment, colony count after 7 to 10 days
[10] = Table III, 24 h treatment, colony count after 7 to 10 days, read-out: CX-1 (IC50)
[11] = read-out: CV-1 (IC50), Table VII
[12] = i.p. on day 1, 4, 7, 11, 15, 18
[13] = read-out: CV-1 (IC50), Table IV
[14] = read-out: CV-1 (IC50), Table VI

Row | SMILES | IC50 [1, 9] [µg/mL] | IC50 [2, 10] [µg/mL] | Selectivity (CV-1 IC50 / CRL-1420 IC50) [3] | Selectivity (ratio of IC50 for CV-1 and IC50 for CX-1) ([2]; Table III) | IC50 [1, 11] [µg/mL] | IC50 [5] [µg/mL] | Selectivity (CV-1 IC50 / MCF-7 IC50) [5] | Selectivity (CV-1 IC50 / EJ IC50) [6] | IC50 [1, 13] [µg/mL] | IC50 ([1]; read-out: CV-1 (IC50), Table V) [µg/mL] | IC50 [1, 14] [µg/mL] | Selectivity (CV-1 IC50 / LOX IC50) [7] | further results
1 | CCN1/C(=C/C=C/c2sc3ccccc3[n+]2CC)Sc2ccccc21 [B, reference compound] | 0.6 |  |  |  |  |  |  |  |  |  |  |  | toxicity to normal nude mice (normal nude mice): highly toxic to normal nude mice
2 | CCN1/C(=C/C=C/c2sc3c4ccccc4ccc3[n+]2CC)Sc2c1ccc1ccccc21 [C, reference compound] | < 0.1 | 0.05 |  |  |  |  |  |  |  |  |  |  | toxicity to normal nude mice (normal nude mice): highly toxic to normal nude mice
3 | CCn1c(=Cc2sc3c4ccccc4ccc3[n+]2CC)sc(=CC=C2Sc3ccc4ccccc4c3N2C)c1=O [Compound 32] | 20 | 0.02 | > 200 | 1000 | 20 |  |  |  |  |  |  |  | response vs control in vivo at 40 mg/kg (human melanoma LOX; 40 mg/kg, i.p. on day 1, 2, 3, 4, 5, 7, 8, 9, 10): 231%; CRL-1420 (IC50) [3]: < 0.1 µg/mL; inhibition in vivo at 20 mg/kg ([4]; i.p. on day 1, 2, 4, 6, 8): 40.5%
4 | CCN1C(=CC=c2sc(=Cc3sc4c5ccccc5ccc4[n+]3CC)n(C)c2=O)Sc2ccc3ccccc3c21 [Compound 45] | 20 | 0.02 | 286 | 1000 | 20 | 0.06 | 333 | 400 | 20 | 20 | 20 | 286 | response vs control in vivo at 20 mg/kg (human melanoma LOX; i.p. on day 1, 2, 3, 6, 9, 13): 137%; IC50 [3]: 0.07 µg/mL; inhibition in vivo at 20 mg/kg [4, 12]: 56.8%; IC50 ([6]; 24 h treatment): 0.05 µg/mL; IC50 ([7]; 24 h treatment): 0.07 µg/mL
5 | CCN1C(=CC=c2sc(=Cc3sc4c5ccccc5ccc4[n+]3C)n(C)c2=O)Sc2ccc3ccccc3c21 [Compound 46] | 20 | 0.05 | 312 | 400 | 20 | 0.082 | 244 | 244 | 20 | 20 | 20 | 312 | response vs control in vivo at 20 mg/kg (human melanoma LOX; i.p. on day 1, 3, 6, 9, 13, 16): 222%; IC50 [3]: 0.064 µg/mL; inhibition in vivo at 20 mg/kg ([4]; i.p. on day 1, 5, 7, 9): 60.1%; IC50 ([6]; 24 h treatment): 0.082 µg/mL; IC50 ([7]; 24 h treatment): 0.064 µg/mL
6 | CC[n+]1c(C=c2sc(=CC=C3Sc4ccc5ccccc5c4N3C)c(=O)n2C)sc2c3ccccc3ccc21 [Compound 47] | 20 | 0.05 | 312 | 400 | 20 | 0.1 | 200 | 244 | 20 | 20 | 20 | 244 | response vs control in vivo at 20 mg/kg (human melanoma LOX; i.p. on day 1, 3, 6, 9, 13, 16): 156%; IC50 [3]: 0.064 µg/mL; inhibition in vivo at 20 mg/kg [4, 12]: 64.1%; IC50 ([6]; 24 h treatment): 0.082 µg/mL; IC50 ([7]; 24 h treatment): 0.082 µg/mL
7 | CCN1C(=CC=c2sc(=Cc3sc4c5ccccc5ccc4[n+]3CC)n(CC)c2=O)Sc2ccc3ccccc3c21 [Compound 54] |  |  | 400 | 500 | 20 | 0.05 | 400 | 500 | 20 | 20 | 20 | 286 | CRL-1420 (IC50) [3]: 0.05 µg/mL; inhibition in vivo at 5 mg/kg ([4]; i.p. on day 1, 5, 9, 13): 42.6%; CX-1 (IC50) ([2]; Table III, 24 h treatment, colony count after 7 to 10 days): 0.04 µg/mL; EJ (IC50) ([6]; 24 h treatment): 0.04 µg/mL; LOX (IC50) ([7]; 24 h treatment): 0.07 µg/mL
8 | CCN1CCSC1=CC=c1sc(=Cc2sc3c4ccccc4ccc3[n+]2CC)n(CC)c1=O [Compound 116] |  |  |  |  |  |  |  |  |  |  |  |  | T/C (survival) ([8]; 5 mg/kg, i.p. on day 1, 5, 9, 14, 19, 23, 27, 48): > 378%; response vs control in vivo at 5 mg/kg (human melanoma LOX; 5 mg/kg, i.p. on day 1, 5, 9, 13, 17, 22): 582%; inhibition in vivo at 5 mg/kg ([4]; i.p. on day 1, 6, 10, 14, 19, 23): 77%
9 | CCN1C(=CC=c2sc(=Cc3cc[n+](CC)c4ccccc34)n(CC)c2=O)C=Cc2ccccc21 [Compound 247] | 20 |  |  | 200 |  |  |  |  |  |  |  |  | T/C (survival) ([8]; 20 mg/kg, i.p. on day 1, 5, 9, 14, 23, 48): > 378%; response vs control in vivo at 20 mg/kg (human melanoma LOX; i.p. on day 1, 2, 3, 4, 8, 9): 227%; inhibition in vivo at 20 mg/kg ([4]; i.p. on day 1, 5, 11, 15, 20, 26, 34): 75%; IC50 ([2]; read-out: CX-1 (IC50), Table III, 24 h treatment, colony count after 7 to 10 days): 0.1 µg/mL
10 | C=CCn1c(=Cc2sc3c4ccccc4ccc3[n+]2CC)sc(=CC=C2C=CN(CC)c3ccccc32)c1=O [Compound 290] | 2.5 | 0.025 |  | 100 |  |  |  |  |  |  |  |  | T/C (survival) ([8]; 2 mg/kg, i.p. on day 1, 5, 9, 18, 48): 356%
11 | CCN1C(=CC=c2sc(=Cc3sc4c([n+]3CC)CCCC4)n(CC)c2=O)Oc2ccccc21 [Compound A, reference compound] | 2 | 0.04 |  |  |  |  |  |  |  |  |  |  | toxicity to normal nude mice (normal nude mice): less toxic to normal nude mice
